The record followed here is patent publication US9567336B2, “Conjugated TLR7 and/or TLR8 and TLR2 agonists” (CAYLA, priority 2012, dated 2017).

The subject of test [1] is NF-κB in RAW-Blue™ Cells (RAW 264.7, endogenous TLR7 and TLR2). Nature of the test: RAW-Blue Cells NF-κB/AP-1 inducible SEAP reporter assay. The class given is cell-based, mouse. The settings on record: murine monocytic macrophage cell line RAW 264.7, 24 hours, OD at 655 nm; FIGS. 5A, 5B. The procedure:
(§1) Some conjugated compounds of the invention were tested for their ability to activate TLR7 and TLR2 receptor signaling. Cell-based assays were carried out using TLR7 and TLR2 reporter cell lines (InvivoGen). The reporter cell lines are engineered HEK293 cells, a human embryonic kidney cell line (ATCC, CRL-1573) that stably express either murine TLR7 (HEK-Blue™ mTLR7) or human TLR7 (HEK-Blue™ hTLR7) or murine TLR2 (HEK-Blue™ mTLR2) or human TLR2 (HEK-Blue™ hTLR2) with an NF-κB-inducible secreted embryonic alkaline phosphatase (SEAP) as the reporter gene. The SEAP reporter gene is placed under the control of the NF-κB and AP-inducible promoter. Stimulation with the corresponding TLR ligand activates NF-κB and AP-1, which induces the production of SEAP. Detection of SEAP is measured following culturing cells in HEK-Blue™ Detection media (InvivoGen). HEK-Blue™ Detection contains a SEAP substrate, which upon hydrolysis by SEAP produces a colorimetric change allowing for detection of SEAP as the protein is secreted. […] These assays were carried out using RAW-Blue™ Cells (InvivoGen), derived from RAW 264.7 mouse leukemic monocytic macrophage cell line (ATCC, CRL 2278) stably overexpressing a NF-κB/AP-1 inducible SEAP reporter constructs.
(§2) To perform the assay, cells were seeded on 96 well microliter plates at 50,000 or 100,000 cells per well for HEK-Blue™ Cells and RAW-Blue™ Cells respectively, and cultured at 37° C. in the presence of the conjugated compounds. The conjugated compounds were prepared as follows: First, stock solutions of the small molecule conjugated compounds of the invention were prepared in ethanol or water to a concentration of 10 mg/ml. A working dilution of the conjugated TLR7-TLR2 small molecules was made up in water and added to cells at a final range of concentrations from 10 μg/mL to 10 pg/ml. The working dilutions of the conjugated TLR7-TLR2 small molecules as the stated concentrations were directly added to the reporter cell lines and incubated at 37° C. for 24 hours. After 24 hours of incubation, the effect on reporter gene activity was determined by reading the OD at 655 nm using iMark™ Microplate Reader (BIO-RAD).
(§3) The conjugated compounds were tested alone for their ability to specifically activate TLR7 and TLR2, alongside the known TLR7 activators R848 or CL264 (InvivoGen) and the TLR2 agonists Pam2CSK4 or Pam3CSK4 (InvivoGen). The specificity of the TLR activity was determined by use of reporter cell lines to the other TLRs (data not shown). […] The molecules show a tendency to activate mouse TLR7 with greater sensitivity than human TLR7. […] Furthermore, dose-dependent responses of the conjugated compounds indicate significant TLR activities of TLR7 and TLR2 compared to the corresponding controls.

A further test deals with T1, human TLR7 (Homo sapiens, UniProt Q9NYK1).
T1 construct: host or cells: HEK293 (HEK-Blue hTLR7)
T1 sequence (Q9NYK1 27-1049): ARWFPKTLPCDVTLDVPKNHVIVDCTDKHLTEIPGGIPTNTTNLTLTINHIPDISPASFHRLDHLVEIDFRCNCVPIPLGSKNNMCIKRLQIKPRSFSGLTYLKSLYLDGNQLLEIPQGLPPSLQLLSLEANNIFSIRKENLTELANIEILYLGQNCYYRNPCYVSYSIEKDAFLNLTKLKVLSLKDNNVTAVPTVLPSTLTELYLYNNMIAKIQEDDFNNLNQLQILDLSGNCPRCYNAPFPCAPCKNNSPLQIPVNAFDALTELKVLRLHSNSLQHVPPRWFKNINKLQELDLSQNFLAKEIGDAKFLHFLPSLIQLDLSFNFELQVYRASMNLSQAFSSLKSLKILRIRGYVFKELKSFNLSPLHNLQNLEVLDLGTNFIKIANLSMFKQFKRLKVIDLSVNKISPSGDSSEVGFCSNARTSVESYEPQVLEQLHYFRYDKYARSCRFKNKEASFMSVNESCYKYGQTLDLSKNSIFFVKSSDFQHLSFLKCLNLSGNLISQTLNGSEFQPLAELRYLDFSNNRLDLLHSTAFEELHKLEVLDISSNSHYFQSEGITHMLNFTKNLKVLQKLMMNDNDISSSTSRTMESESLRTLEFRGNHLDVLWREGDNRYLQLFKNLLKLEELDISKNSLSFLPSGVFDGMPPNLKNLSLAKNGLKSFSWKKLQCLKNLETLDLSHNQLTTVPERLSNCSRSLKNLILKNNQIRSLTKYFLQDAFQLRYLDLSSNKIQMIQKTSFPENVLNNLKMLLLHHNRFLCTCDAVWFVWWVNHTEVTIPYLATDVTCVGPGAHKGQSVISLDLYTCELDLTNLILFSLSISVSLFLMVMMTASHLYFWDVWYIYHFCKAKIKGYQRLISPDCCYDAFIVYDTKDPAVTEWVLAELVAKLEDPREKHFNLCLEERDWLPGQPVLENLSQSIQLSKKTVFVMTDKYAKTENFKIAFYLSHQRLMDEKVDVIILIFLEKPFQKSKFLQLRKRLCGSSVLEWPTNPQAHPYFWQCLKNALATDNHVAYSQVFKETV
As to the kind of experiment: HEK-Blue hTLR7 NF-κB/AP-1 SEAP reporter cell assay. The class given is cell-based. The settings on record: HEK-Blue hTLR7 reporter cells, 10 μg/mL to 10 pg/ml, 24 hours, OD at 655 nm; FIGS. 1A, 1B. The procedure:
as §1, §2, §3

A further test deals with T2, murine TLR2 (Mus musculus, UniProt Q9QUN7).
T2 construct: host or cells: HEK293 (HEK-Blue mTLR2)
T2 sequence (Q9QUN7 25-784): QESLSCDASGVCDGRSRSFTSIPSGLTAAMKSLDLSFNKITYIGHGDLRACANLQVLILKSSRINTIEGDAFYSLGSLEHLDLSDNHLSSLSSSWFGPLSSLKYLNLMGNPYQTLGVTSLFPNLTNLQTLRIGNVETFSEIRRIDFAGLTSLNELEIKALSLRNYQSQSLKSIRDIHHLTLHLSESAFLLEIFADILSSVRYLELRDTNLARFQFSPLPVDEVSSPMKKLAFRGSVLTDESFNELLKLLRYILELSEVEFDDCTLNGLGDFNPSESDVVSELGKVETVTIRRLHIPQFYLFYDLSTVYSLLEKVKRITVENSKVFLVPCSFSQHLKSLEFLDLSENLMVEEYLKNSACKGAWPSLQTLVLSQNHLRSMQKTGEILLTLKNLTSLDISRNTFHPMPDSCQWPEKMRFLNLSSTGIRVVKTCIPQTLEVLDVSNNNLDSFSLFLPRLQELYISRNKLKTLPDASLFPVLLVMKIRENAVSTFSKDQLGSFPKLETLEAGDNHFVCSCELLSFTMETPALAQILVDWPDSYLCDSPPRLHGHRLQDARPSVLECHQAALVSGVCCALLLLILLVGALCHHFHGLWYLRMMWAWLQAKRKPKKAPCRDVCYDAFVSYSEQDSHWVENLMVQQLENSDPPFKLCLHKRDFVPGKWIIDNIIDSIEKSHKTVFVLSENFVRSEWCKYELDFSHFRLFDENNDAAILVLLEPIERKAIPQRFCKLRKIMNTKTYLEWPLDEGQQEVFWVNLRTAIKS
Nature of the test: HEK-Blue mTLR2 NF-κB/AP-1 SEAP reporter cell assay. The class given is cell-based. The conditions noted are these: HEK-Blue mTLR2 reporter cells, 10 μg/mL to 10 pg/ml, 24 hours, OD at 655 nm; FIG. 4. The procedure: as §1, §2, §3

The target of another test is T3, murine TLR7 (Mus musculus, UniProt P58681).
T3 construct: host or cells: HEK293 (HEK-Blue mTLR7)
T3 sequence (P58681 27-1050): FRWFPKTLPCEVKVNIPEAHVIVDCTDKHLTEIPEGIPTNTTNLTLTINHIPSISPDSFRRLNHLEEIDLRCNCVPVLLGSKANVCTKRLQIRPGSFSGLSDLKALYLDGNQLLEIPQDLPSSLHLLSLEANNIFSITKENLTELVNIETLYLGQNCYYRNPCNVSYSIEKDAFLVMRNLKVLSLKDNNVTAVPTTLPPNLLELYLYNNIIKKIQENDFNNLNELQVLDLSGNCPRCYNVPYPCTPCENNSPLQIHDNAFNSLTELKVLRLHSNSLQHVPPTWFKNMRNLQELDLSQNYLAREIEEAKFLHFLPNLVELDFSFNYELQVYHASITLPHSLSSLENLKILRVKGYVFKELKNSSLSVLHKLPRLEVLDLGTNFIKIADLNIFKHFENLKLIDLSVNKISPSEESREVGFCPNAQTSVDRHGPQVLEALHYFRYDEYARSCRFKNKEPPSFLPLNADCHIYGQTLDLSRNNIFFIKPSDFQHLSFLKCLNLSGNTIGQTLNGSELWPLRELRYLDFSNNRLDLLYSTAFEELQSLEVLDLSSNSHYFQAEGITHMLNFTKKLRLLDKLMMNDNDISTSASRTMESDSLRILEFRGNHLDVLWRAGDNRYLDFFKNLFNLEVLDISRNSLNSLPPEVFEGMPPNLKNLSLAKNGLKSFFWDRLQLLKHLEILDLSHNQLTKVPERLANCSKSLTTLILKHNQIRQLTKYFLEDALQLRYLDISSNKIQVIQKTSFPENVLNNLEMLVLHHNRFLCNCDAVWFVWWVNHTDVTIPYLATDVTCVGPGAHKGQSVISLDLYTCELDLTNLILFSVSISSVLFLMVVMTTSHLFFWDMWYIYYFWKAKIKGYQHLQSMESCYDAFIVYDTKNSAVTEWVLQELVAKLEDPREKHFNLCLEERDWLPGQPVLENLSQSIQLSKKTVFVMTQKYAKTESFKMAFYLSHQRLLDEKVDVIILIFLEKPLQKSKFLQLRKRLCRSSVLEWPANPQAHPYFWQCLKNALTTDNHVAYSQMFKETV
Nature of the test: HEK-Blue mTLR7 NF-κB/AP-1 SEAP reporter cell assay. The class given is cell-based. The settings on record: HEK-Blue mTLR7 reporter cells, 10 μg/mL to 10 pg/ml, 24 hours, OD at 655 nm; FIGS. 2A, 2B. The procedure: as §1, §2, §3

For a further test, the target named is T4, human TLR2 (Homo sapiens, UniProt O60603).
T4 construct: host or cells: HEK293 (HEK-Blue hTLR2)
T4 sequence (O60603 21-784): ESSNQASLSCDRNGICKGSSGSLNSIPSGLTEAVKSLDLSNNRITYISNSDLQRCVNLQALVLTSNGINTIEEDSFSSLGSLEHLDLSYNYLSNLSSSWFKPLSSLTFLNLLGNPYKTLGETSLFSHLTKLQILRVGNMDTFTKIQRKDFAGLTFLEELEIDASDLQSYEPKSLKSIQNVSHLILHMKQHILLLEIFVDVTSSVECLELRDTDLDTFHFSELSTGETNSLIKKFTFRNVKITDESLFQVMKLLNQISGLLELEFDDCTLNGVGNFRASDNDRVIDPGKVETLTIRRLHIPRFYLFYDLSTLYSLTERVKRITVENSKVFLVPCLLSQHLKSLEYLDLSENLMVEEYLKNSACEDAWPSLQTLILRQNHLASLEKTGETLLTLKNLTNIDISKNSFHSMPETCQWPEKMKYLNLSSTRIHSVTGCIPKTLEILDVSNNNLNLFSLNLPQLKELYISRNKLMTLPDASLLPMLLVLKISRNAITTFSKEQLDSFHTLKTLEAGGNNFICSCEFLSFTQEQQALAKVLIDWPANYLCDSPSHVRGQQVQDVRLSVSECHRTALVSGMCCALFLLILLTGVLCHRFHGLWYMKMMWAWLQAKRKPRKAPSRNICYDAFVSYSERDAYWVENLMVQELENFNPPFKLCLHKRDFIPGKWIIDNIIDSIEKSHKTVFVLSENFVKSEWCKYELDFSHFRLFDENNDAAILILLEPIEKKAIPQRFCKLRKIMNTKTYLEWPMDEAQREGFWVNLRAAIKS
Nature of the test: HEK-Blue hTLR2 NF-κB/AP-1 SEAP reporter cell assay. Type of test: cell-based. The settings on record: HEK-Blue hTLR2 reporter cells, 10 μg/mL to 10 pg/ml, 24 hours, OD at 655 nm; FIGS. 3A, 3B. The protocol:
as §1, §2, §3

For the molecule `CCCCCCCCCCCCCC(=O)OCCSC[C@H](N)C(=O)Nc1ccc(Cn2c(O)nc3c(N)nc(NCCCC)nc32)cc1` [CL555, (R)-2-(2-amino-3-(4-((6-amino-2-(butylamino)-8-hydroxy-9H-purin-9-yl)methyl)phenylamino)-3-oxopropylthio)ethyl tetradecanoate], the “induction of NF-κB in RAW-Blue cells” value in test [1] was “activate NF-κB”. On human TLR7, the “ability to activate TLR7 receptors (human TLR7)” value (“ability … (human TLR7)” for short) is recorded as “activate TLR7 receptors”. The “ability to activate TLR2 receptor (murine TLR2)” value (shortened to “ability … (murine TLR2)”) on murine TLR2 is “activate TLR2 receptor”. Moreover, on murine TLR7, the “ability to activate TLR7 receptors (murine TLR7)” value (“ability … (murine TLR7)” below) is reported as “activate TLR7 receptors”. Besides, at human TLR2, the “ability to activate TLR2 receptor (human TLR2)” value (shortened to “ability … (human TLR2)”) is listed as “activate TLR2 receptor”.

As to `CCCCCCCCCCCCCCCC(=O)N[C@@H](CSCC(COC(=O)CCCCCCCCCCCCCCC)OC(=O)CCCCCCCCCCCCCCC)C(=O)Nc1ccc(Cn2c(O)nc3c(N)nc(NCCCC)nc32)cc1` (mixture of isomers) [CL446, (R)-3-(3-(4-((6-amino-2-(butylamino)-8-hydroxy-9H-purin-9-yl)methyl)phenylamino)-3-oxo-2-palmitamidopropylthio)propane-1,2-diyl dipalmitate], the “induction of NF-κB in RAW-Blue cells” value in test [1] is given as “activate NF-κB”. Moreover, the “ability … (human TLR7)” value on human TLR7 is “activate TLR7 receptors”. Moreover, on murine TLR7, the “ability … (murine TLR7)” value is on record as “activate TLR7 receptors”. Besides, the “ability … (human TLR2)” value on human TLR2 is listed as “activate TLR2 receptor”.

On to `CCCCCCCCCCCCCCCCCC(=O)OCCSC[C@H](N)C(=O)N[C@@H](CO)C(=O)Nc1ccc(Cn2c(O)nc3c(N)nc(NCCCC)nc32)cc1` [CL560, 2-((R)-2-amino-3-((S)-1-(4-((6-amino-2-(butylamino)-8-hydroxy-9H-purin-9-yl)methyl)phenylamino)-3-hydroxy-1-oxopropan-2-ylamino)-3-oxopropylthio)ethyl stearate], for which, in test [1], the “induction of NF-κB in RAW-Blue cells” value is listed as “activate NF-κB”. For the same molecule, the “ability … (human TLR7)” value on human TLR7 is “activate TLR7 receptors”. Moreover, at murine TLR2, the “ability … (murine TLR2)” value was “activate TLR2 receptor”. Moreover, at murine TLR7, the “ability … (murine TLR7)” value was “activate TLR7 receptors”. Also, the “ability … (human TLR2)” value on human TLR2 is “activate TLR2 receptor”.

On to `CCCCCCCCCCCCCCCCCC(=O)OCCSC[C@H](N)C(=O)Nc1ccc(Cn2c(O)nc3c(N)nc(NCCCC)nc32)cc1` [CL557, (R)-2-(2-amino-3-(4-((6-amino-2-(butylamino)-8-hydroxy-9H-purin-9-yl)methyl)phenylamino)-3-oxopropylthio)ethyl stearate], for which the “induction of NF-κB in RAW-Blue cells” value in test [1] is reported as “activate NF-κB”. Moreover, on human TLR7, the “ability … (human TLR7)” value was “activate TLR7 receptors”. Further, the “ability … (murine TLR2)” value at murine TLR2 is “activate TLR2 receptor”. Also, the “ability … (murine TLR7)” value on murine TLR7 is reported as “activate TLR7 receptors”. Besides, the “ability … (human TLR2)” value on human TLR2 was “activate TLR2 receptor”.

For `CCCCCCCCCCCCCCCC(=O)OCC(CSC[C@H](N)C(=O)N[C@@H](CO)C(=O)Nc1ccc(Cn2c(O)nc3c(N)nc(NCCCC)nc32)cc1)OC(=O)CCCCCCCCCCCCCCC` (stereo partly drawn) [CL453, 3-((R)-2-amino-3-((S)-1-(4-((6-amino-2-(butylamino)-8-hydroxy-9H-purin-9-yl)methyl)phenylamino)-3-hydroxy-1-oxopropan-2-ylamino)-3-oxopropylthio)propane-1,2-diyl dipalmitate], the “induction of NF-κB in RAW-Blue cells” value in test [1] is reported as “activate NF-κB”. Moreover, the “ability … (human TLR7)” value at human TLR7 is “activate TLR7 receptors”. The “ability … (murine TLR7)” value on murine TLR7 is on record as “activate TLR7 receptors”. The “ability … (human TLR2)” value at human TLR2 is given as “activate TLR2 receptor”.

`CCCCCCCCCCCCCC(=O)OCCSC[C@H](N)C(=O)N[C@@H](CCC(=O)Nc1ccc(Cn2c(O)nc3c(N)nc(NCCCC)nc32)cc1)C(=O)OC` [CL572, 2-((R)-2-amino-3-((S)-5-(4-((6-amino-2-(butylamino)-8-hydroxy-9H-purin-9-yl)methyl)phenylamino)-1-methoxy-1,5-dioxopentan-2-ylamino)-3-oxopropylthio)ethyl tetradecanoate]: the “ability … (human TLR7)” value at human TLR7 is listed as “activate TLR7 receptors”. At murine TLR2, the “ability … (murine TLR2)” value was “activate TLR2 receptor”. Further, the “ability … (murine TLR7)” value on murine TLR7 was “activate TLR7 receptors”. Moreover, at human TLR2, the “ability … (human TLR2)” value is on record as “activate TLR2 receptor”.
